Experiments:
bCA-II [1] = molecular target: T1, bCA-II (Bos taurus, UniProt P00921); assay: In vitro carbonic anhydrase inhibition assay (p-NPA, spectrophotometric), bCA-II; assay type: biochemical, bovine; settings: for bCA-II IC50 ± S.E.M. / IC50: bovine CA-II, substrate p-NPA, 15 min at 25°C, triplicate; for IC50: read-out: bCA-II IC50 ± S.E.M.
Protocol: Total assay volume comprises 140 µl of HEPES-Tris buffer, 20 µl of bCA-II solution (0.1 mg/ml HEPES-Tris buffer), 20 µl of the test compound (prepared in DMSO), and 20 µl p-NPA (0.7 mM, methanol). First, the test compound and enzyme were incubated for 15 min at 25°C; after incubation, in quick sequence, substrate was added to each experiment in 96-well plates, which were placed in the ^xMARK microplate spectrophotometer (Bio-Rad, United States), and the absorbance was set to 400 nm with 1 min interval time. The activity of the controlled compound was taken as 100%.

hCA-II [2] = molecular target: T2, hCA-II (Homo sapiens, UniProt P00918); assay: In vitro carbonic anhydrase inhibition assay (p-NPA, spectrophotometric), hCA-II; assay type: biochemical; settings: for hCA-II IC50 ± S.E.M. / IC50: human CA-II, substrate p-NPA, triplicate; for IC50: read-out: hCA-II IC50 ± S.E.M.; for Selectivity for hCA-II: hCA-II versus bCA-II
bCA-II [3] = molecular target: T1, bCA-II; assay: Kinetics study against bCA-II; assay type: biochemical, bovine; settings: for Kmapp: Michaelis–Menten constant in the presence of inhibitor; for Vmaxapp: maximum velocity in the presence of inhibitor; for Ki: read-out: Ki ± SEM
Protocol: (§1) Soon after the incubation, various concentrations of substrate were added to the reaction medium (01–0.8 mM). The enzyme activity was measured under steady-state conditions by observing changes in absorbance for 30 min at 400 nm on the microtiter plate reader (Bio-Rad X-Mark^Tm molecular spectrometer, United States). The results were analyzed and processed by Grafit 7 software (Erithacus Software Limited, United Kingdom). Different kinetic parameters of enzymes (e.g., Vmax, Km, Vmaxapp, and Kmapp) and values of correlation coefficients, intercepts, slopes, and their standard error mean were calculated by the linear regression graph by Grafit 7. Linear regression analysis was used to calculate the “best fit” line or curve through a dataset by minimizing the deviation of the data from the curve.

hCA-II [4] = molecular target: T2, hCA-II; assay: Kinetics study against hCA-II; assay type: biochemical; settings: for Kmapp: Michaelis–Menten constant in the presence of inhibitor; for Vmaxapp: maximum velocity in the presence of inhibitor; for Ki: read-out: Ki ± SEM
Protocol: as §1

T1 sequence (P00921 whole entry): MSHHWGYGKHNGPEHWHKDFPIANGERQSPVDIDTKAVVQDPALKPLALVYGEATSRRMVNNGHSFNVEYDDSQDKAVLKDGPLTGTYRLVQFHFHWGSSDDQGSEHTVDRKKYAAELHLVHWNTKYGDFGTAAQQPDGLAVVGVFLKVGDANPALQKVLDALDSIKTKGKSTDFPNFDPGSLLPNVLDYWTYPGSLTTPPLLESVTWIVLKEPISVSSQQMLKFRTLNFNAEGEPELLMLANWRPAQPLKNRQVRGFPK

Row | SMILES | bCA-II IC50 ± S.E.M. (bCA-II [1]) | hCA-II IC50 ± S.E.M. (hCA-II [2]) | IC50 (bCA-II [1]) [µM] | IC50 (hCA-II [2]) [µM] | also measured
1 | COc1cc(-c2cc3ccccc3s2)ccc1O[C@H](C)Cn1cc(-c2ccc(F)cc2)nn1 [Compound 9s] | Inactive | Inactive | – | – | –
2 | COc1cc(Br)ccc1O[C@H](C)Cn1cc(-c2ccc(F)cc2)nn1 [Compound 7c] | – | – | 20.4 ± 0.3 | 22.8 ± 0.2 | –
3 | COc1cc(-c2ccc(C)cc2)ccc1O[C@H](C)Cn1cc(-c2ccc(F)cc2)nn1 [Compound 9g] | – | Inactive | 16.4 ± 0.4 | – | –
4 | COc1cc(-c2ccc(C=O)cc2)ccc1O[C@H](C)Cn1cc(-c2ccc(F)cc2)nn1 [Compound 9n] | – | – | 22.4 ± 0.4 | 23 ± 0.3 | –
5 | COC(=O)c1cn(C[C@@H](C)Oc2ccc(Br)cc2OC)nn1 [Compound 7d] | – | – | 12.3 ± 0.4 | 25.1 ± 0.4 | –
6 | COc1cc(Br)ccc1O[C@H](C)Cn1cc(-c2ccccc2)nn1 [Compound 7a] | – | – | 21.4 ± 0.1 | 35.3 ± 0.6 | –
7 | COc1cc(-c2ccc(C(C)=O)cc2)ccc1O[C@H](C)Cn1cc(-c2ccc(F)cc2)nn1 [Compound 9r] | – | Inactive | 29 ± 1 | – | Selectivity for bCA-II (bCA-II [1]; bCA-II versus hCA-II): selective inhibitors of bCA-II
8 | COc1cc(-c2ccc(C)cc2)ccc1O[C@H](C)Cn1cc(-c2ccc(C(F)(F)F)cc2)nn1 [Compound 9a] | – | – | 25.7 ± 0.2 | 21 ± 1 | –
9 | COc1ccc(-c2ccc(O[C@H](C)Cn3cc(-c4ccc(C(F)(F)F)cc4)nn3)c(OC)c2)cc1 [Compound 9b] | – | – | 39.1 ± 0.3 | 22.4 ± 0.4 | –
10 | COc1cc(-c2ccc(F)c(F)c2F)ccc1O[C@H](C)Cn1cc(-c2ccc(F)cc2)nn1 [Compound 9p] | Inactive | – | – | 19.3 ± 0.2 | Selectivity for hCA-II (hCA-II [2]): selective inhibitors of the hCA-II
11 | COc1cc(-c2c(F)cccc2F)ccc1O[C@H](C)Cn1cc(-c2ccc(F)cc2)nn1 [Compound 9o] | – | – | 14.1 ± 0.2 | 13.6 ± 1 | Type of inhibition (bCA-II [3]): competitive inhibition; Kmapp (bCA-II [3]): 4.9 mM; Vmaxapp (bCA-II [3]): 24.6 (µmol/min)^−1; Ki (bCA-II [3]): 11.3 ± 0.17 µM; Type of inhibition (hCA-II [4]): competitive inhibition; Kmapp (hCA-II [4]): 4.2 mM; Vmaxapp (hCA-II [4]): 25.3 (µmol/min)^−1; Ki (hCA-II [4]): 6.5 ± 0.19 µM
12 | COc1cc(-c2ccc3ccccc3c2)ccc1O[C@H](C)Cn1cc(-c2ccc(F)cc2)nn1 [Compound 9q] | Inactive | Inactive | – | – | –
13 | COc1cc(Br)ccc1O[C@H](C)Cn1cc(-c2ccc(C(F)(F)F)cc2)nn1 [Compound 7b] | – | – | 20.6 ± 0.3 | 45.1 ± 0.5 | –
14 | COc1cc(-c2ccc(F)cc2)ccc1O[C@H](C)Cn1cc(-c2ccc(F)cc2)nn1 [Compound 9l] | Inactive | Inactive | – | – | –
15 | COc1ccc(-c2ccc(O[C@H](C)Cn3cc(-c4ccc(F)cc4)nn3)c(OC)c2)cc1 [Compound 9h] | – | Inactive | 12.9 ± 1 | – | –
16 | COc1cc(-c2ccc([N+](=O)[O-])cc2)ccc1O[C@H](C)Cn1cc(-c2ccc(F)cc2)nn1 [Compound 9i] | – | – | 11.1 ± 0.2 | 10.9 ± 1 | Type of inhibition (bCA-II [3]): competitive inhibition; Kmapp (bCA-II [3]): 5.6 mM; Vmaxapp (bCA-II [3]): 23.2 (µmol/min)^−1; Ki (bCA-II [3]): 9.4 ± 0.3 µM; Type of inhibition (hCA-II [4]): competitive inhibition; Kmapp (hCA-II [4]): 3.9 mM; Vmaxapp (hCA-II [4]): 26.1 (µmol/min)^−1; Ki (hCA-II [4]): 8.1 ± 0.04 µM
17 | COc1cc(-c2ccc(C#N)cc2)ccc1O[C@H](C)Cn1cc(-c2ccc(F)cc2)nn1 [Compound 9k] | Inactive | – | – | 21.3 ± 0.8 | Selectivity for hCA-II (hCA-II [2]): selective inhibitors of the hCA-II
18 | COc1cc(-c2ccc(Cl)cc2)ccc1O[C@H](C)Cn1cc(-c2ccc(F)cc2)nn1 [Compound 9j] | Inactive | – | – | 18.5 ± 0.4 | –
19 | COc1cc(-c2ccc([N+](=O)[O-])cc2)ccc1O[C@H](C)Cn1cc(-c2ccc(C(F)(F)F)cc2)nn1 [Compound 9e] | – | Inactive | 17.8 ± 0.8 | – | –
20 | COc1cc(-c2cc(C(F)(F)F)cc(C(F)(F)F)c2)ccc1O[C@H](C)Cn1cc(-c2ccc(F)cc2)nn1 [Compound 9m] | – | – | 41 ± 0.4 | 27.4 ± 0.9 | –
21 | COc1cc(-c2ccc(F)cc2)ccc1O[C@H](C)Cn1cc(-c2ccc(C(F)(F)F)cc2)nn1 [Compound 9d] | – | Inactive | 28.8 ± 0.4 | – | –
22 | COc1cc(-c2ccccc2)ccc1O[C@H](C)Cn1cc(-c2ccc(F)cc2)nn1 [Compound 9f] | – | Inactive | 88.4 ± 0.3 | – | –
23 | COc1cc(-c2ccccc2C(F)(F)F)ccc1O[C@H](C)Cn1cc(-c2ccc(C(F)(F)F)cc2)nn1 [Compound 9c] | Inactive | – | – | 12.5 ± 0.6 | Selectivity for hCA-II (hCA-II [2]): selective inhibitors of the hCA-II
